Measured values from publication PMC10600247, “Impact of C- and N-terminal protection on the stability, metal chelation and antimicrobial properties of calcitermin” (Scientific Reports, 2023).
Residues, ends and D or L forms follow the SMILES beside them.

What was measured:
[1] = Excerpt: Stability constants for proton and metal complexes were obtained from pH-metric titration curves registered at T = 298 K and ionic strength 0.1 M (KCl). The potentiometric apparatus was previously described. Solutions were titrated with 0.1 M carbonate-free KOH. The electrode was daily calibrated for hydrogen ion concentration by titrating HNO3 with the standard base solution, under the same experimental conditions as above. The asymmetry potential and the slope of the electrode couple were computed by means of […][41] and Glee[42] programs. The purities and exact concentrations of the ligand solutions were determined by the Gran method. The […][44] program was employed for the overall formation constant (β) calculations, referred to the following equilibrium equation: pM + qL + rH ⇆ MpLqHr (charges omitted; p is 0 in the case of ligand protonation; r can be negative). The computed standard deviations (referring to random errors only) were given by the program itself and are shown in parentheses as uncertainties on the last significant figure. Hydrolysis constants for metal ions were taken from the literature[45],[46]. The distribution and competition diagrams were computed using the HYSS program.
1. Wild-type calcitermin: thermodynamic data
Wild-type calcitermin (WT) has been previously investigated by our research group in aqueous solutions and ionic medium NaClO4.1 For the sake of comparison, potentiometric studies of WT and its copper and zinc complexes have been performed in a different ionic medium (KCl 0.1 M). The study of the speciation under different experimental conditions, changing ionic medium and metal-ligand ratio, is essential to comprehensively describe the thermodynamics of calcitermin, which is usually found in multicomponent media like biological fluids.
Table S1. Equilibrium constants for protonation of WT and its Cu2+ and Zn2+ complex formation at T = 298 K and I = 0.1 M (KCl). Values in parentheses are standard deviations on the last significant figure.

E. coli (ATCC 25922) = assay: In vitro anti-E. coli CFU assay; format: cell-based, Escherichia coli; settings: pH 5.4; for mean CFU number ± S.D.: per 0.1 mL
How it was run: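 Peptides (final 0.128, 0.064, 0.032 mg/mL), alone or with ZnCl2 or CuCl2 at M:L 0.9:1, were incubated with 10^3 CFU/well in PBS pH 5.4 plus 1.5% TSB at 37 °C with slow rocking for 3 and 24 h. Aliquots were plated on TSA and CFU counted after 24 h; triplicate.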

[2] = T = 298 K, I = 0.1 M (KCl), charges omitted
[3] = peptide 0.032 mg/mL + CuCl2 (0.9:1), 3 h
[4] = peptide 0.032 mg/mL + CuCl2 (0.9:1), 24 h
[5] = peptide 0.032 mg/mL + ZnCl2 (0.9:1), 3 h
[6] = peptide 0.032 mg/mL + ZnCl2 (0.9:1), 24 h
[7] = peptide 0.064 mg/mL + CuCl2 (0.9:1), 3 h
[8] = peptide 0.064 mg/mL + CuCl2 (0.9:1), 24 h
[9] = peptide 0.064 mg/mL + ZnCl2 (0.9:1), 3 h
[10] = peptide 0.064 mg/mL + ZnCl2 (0.9:1), 24 h
[11] = peptide 0.128 mg/mL + CuCl2 (0.9:1), 3 h
[12] = peptide 0.128 mg/mL + CuCl2 (0.9:1), 24 h
[13] = peptide 0.128 mg/mL + ZnCl2 (0.9:1), 3 h
[14] = peptide 0.128 mg/mL + ZnCl2 (0.9:1), 24 h
[15] = peptide alone 0.032 mg/mL, 24 h
[16] = peptide alone 0.064 mg/mL, 24 h
[17] = peptide alone 0.128 mg/mL, 24 h

CC[C@H](C)[C@H](NC(=O)[C@H](C)NC(=O)[C@@H](NC(C)=O)C(C)C)C(=O)N[C@@H](C)C(=O)N[C@@H](CC(C)C)C(=O)N[C@@H](CCCCN)C(=O)N[C@@H](C)C(=O)N[C@@H](C)C(=O)N[C@@H](Cc1c[nH]cn1)C(=O)N[C@@H](Cc1ccc(O)cc1)C(=O)N[C@@H](Cc1c[nH]cn1)C(=O)N[C@H](C(=O)N[C@@H](Cc1c[nH]cn1)C(=O)N[C@@H](CCCCN)C(=O)N[C@@H](CCC(=O)O)C(N)=O)[C@@H](C)O [L2, Ac-VAIALKAAHYHTHKE-NH2] (Ac-VAIALKAAHYHTHKE-NH2)
pKa [CuH2L] [1]: 5.49 | pKa [CuH-1L] [1]: 9.44 | pKa [CuH-2L] [1]: 9.91 | pKa [CuHL] [1]: 6.30 | pKa [CuL] [1]: 6.70 | pKa [ZnH2L] [1]: 6.14 | pKa [ZnH-1L] [1]: 9.44 | pKa [ZnHL] [1]: 7.63 | pKa [ZnL] [1]: 8.93 | logβ [CuH2L] [1, 2]: 23.06(4) | logβ [CuH-1L] [1, 2]: 4.57(6) | logβ [CuHL] [1, 2]: 17.57(5) | logβ [CuL] [1, 2]: 11.27(7) | logβ [ZnH2L] [1, 2]: 20.29(6) | logβ [ZnHL] [1, 2]: 14.15(4) | logβ [ZnL] [1, 2]: 6.52(5) | mean CFU number ± S.D. (E. coli (ATCC 25922); [3]): 467 ± 19 CFU | CFU decrease/increase with respect to untreated controls (E. coli (ATCC 25922); [4]): -2.9% | mean CFU number ± S.D. (E. coli (ATCC 25922); [4]): 167 ± 37 CFU | mean CFU number ± S.D. (E. coli (ATCC 25922); [5]): 378 ± 8 CFU | CFU decrease/increase with respect to untreated controls (E. coli (ATCC 25922); [6]): -12.7% | mean CFU number ± S.D. (E. coli (ATCC 25922); [6]): 150 ± 4 CFU | mean CFU number ± S.D. (E. coli (ATCC 25922); [7]): 371 ± 54 CFU | CFU decrease/increase with respect to untreated controls (E. coli (ATCC 25922); [8]): -2.9% | mean CFU number ± S.D. (E. coli (ATCC 25922); [8]): 167 ± 12 CFU | mean CFU number ± S.D. (E. coli (ATCC 25922); [9]): 248 ± 88 CFU | CFU decrease/increase with respect to untreated controls (E. coli (ATCC 25922); [10]): -15.1% | mean CFU number ± S.D. (E. coli (ATCC 25922); [10]): 146 ± 6 CFU | mean CFU number ± S.D. (E. coli (ATCC 25922); [11]): 190 ± 15 CFU | CFU decrease/increase with respect to untreated controls (E. coli (ATCC 25922); [12]): -21% | mean CFU number ± S.D. (E. coli (ATCC 25922); [12]): 136 ± 25 CFU | mean CFU number ± S.D. (E. coli (ATCC 25922); [13]): 44 ± 4 CFU | CFU decrease/increase with respect to untreated controls (E. coli (ATCC 25922); [14]): -8.1% | mean CFU number ± S.D. (E. coli (ATCC 25922); [14]): 158 ± 18 CFU | CFU decrease/increase with respect to untreated controls (E. coli (ATCC 25922); peptide alone 0.032 mg/mL, 3 h): -1% | mean CFU number ± S.D. (E. coli (ATCC 25922); peptide alone 0.032 mg/mL, 3 h): 1,037 ± 161 CFU | CFU decrease/increase with respect to untreated controls (E. coli (ATCC 25922); [15]): +9% | mean CFU number ± S.D. (E. coli (ATCC 25922); [15]): 187 ± 11 CFU | CFU decrease/increase with respect to untreated controls (E. coli (ATCC 25922); peptide alone 0.064 mg/mL, 3 h): -2% | mean CFU number ± S.D. (E. coli (ATCC 25922); peptide alone 0.064 mg/mL, 3 h): 1031 ± 83 CFU | CFU decrease/increase with respect to untreated controls (E. coli (ATCC 25922); [16]): +8% | mean CFU number ± S.D. (E. coli (ATCC 25922); [16]): 186 ± 14 CFU | CFU decrease/increase with respect to untreated controls (E. coli (ATCC 25922); peptide alone 0.128 mg/mL, 3 h): -19% | mean CFU number ± S.D. (E. coli (ATCC 25922); peptide alone 0.128 mg/mL, 3 h): 845 ± 55 CFU | CFU decrease/increase with respect to untreated controls (E. coli (ATCC 25922); [17]): -3% | mean CFU number ± S.D. (E. coli (ATCC 25922); [17]): 166 ± 20 CFU

CC[C@H](C)[C@H](NC(=O)[C@H](C)NC(=O)[C@@H](N)C(C)C)C(=O)N[C@@H](C)C(=O)N[C@@H](CC(C)C)C(=O)N[C@@H](CCCCN)C(=O)N[C@@H](C)C(=O)N[C@@H](C)C(=O)N[C@@H](Cc1c[nH]cn1)C(=O)N[C@@H](Cc1ccc(O)cc1)C(=O)N[C@@H](Cc1c[nH]cn1)C(=O)N[C@H](C(=O)N[C@@H](Cc1c[nH]cn1)C(=O)N[C@@H](CCCCN)C(=O)N[C@@H](CCC(=O)O)C(N)=O)[C@@H](C)O [L3, VAIALKAAHYHTHKE-NH2] (H-VAIALKAAHYHTHKE-NH2)
pKa [CuH2L] [1]: 7.75 | pKa [CuH3L] [1]: 6.90 | pKa [CuH4L] [1]: 6.21 | pKa [CuH5L] [1]: 5.16 | pKa [CuHL] [1]: 9.53 | pKa [CuL] [1]: 10.01 | pKa [ZnH2L] [1]: 8.65 | pKa [ZnH3L] [1]: 7.69 | pKa [ZnH4L] [1]: 7.32 | pKa [ZnH5L] [1]: 5.6 | pKa [ZnHL] [1]: 9.47 | logβ [CuH2L] [1, 2]: 33.11(2) | logβ [CuH3L] [1, 2]: 40.00(3) | logβ [CuH4L] [1, 2]: 46.21(2) | logβ [CuH5L] [1, 2]: 51.38(2) | logβ [CuH-1L] [1, 2]: 5.82(4) | logβ [CuHL] [1, 2]: 25.36(3) | logβ [CuL] [1, 2]: 15.83(5) | logβ [ZnH2L] [1, 2]: 28.06(4) | logβ [ZnH3L] [1, 2]: 35.75(6) | logβ [ZnH4L] [1, 2]: 43.07(3) | logβ [ZnH5L] [1, 2]: 48.7(1) | logβ [ZnHL] [1, 2]: 19.40(5) | logβ [ZnL] [1, 2]: 9.94(4) | mean CFU number ± S.D. (E. coli (ATCC 25922); [3]): 509 ± 100 CFU | CFU decrease/increase with respect to untreated controls (E. coli (ATCC 25922); [4]): +7% | mean CFU number ± S.D. (E. coli (ATCC 25922); [4]): 184 ± 17 CFU | mean CFU number ± S.D. (E. coli (ATCC 25922); [5]): 439 ± 91 CFU | CFU decrease/increase with respect to untreated controls (E. coli (ATCC 25922); [6]): +17% | mean CFU number ± S.D. (E. coli (ATCC 25922); [6]): 202 ± 23 CFU | mean CFU number ± S.D. (E. coli (ATCC 25922); [7]): 198 ± 117 CFU | CFU decrease/increase with respect to untreated controls (E. coli (ATCC 25922); [8]): -20% | mean CFU number ± S.D. (E. coli (ATCC 25922); [8]): 138 ± 48 CFU | mean CFU number ± S.D. (E. coli (ATCC 25922); [9]): 224 ± 4 CFU | CFU decrease/increase with respect to untreated controls (E. coli (ATCC 25922); [10]): +8% | mean CFU number ± S.D. (E. coli (ATCC 25922); [10]): 186 ± 21 CFU | mean CFU number ± S.D. (E. coli (ATCC 25922); [11]): 191 ± 7 CFU | mean CFU number ± S.D. (E. coli (ATCC 25922); [12]): 102 ± 20 CFU | mean CFU number ± S.D. (E. coli (ATCC 25922); [13]): 59 ± 9 CFU | CFU decrease/increase with respect to untreated controls (E. coli (ATCC 25922); [14]): +9% | mean CFU number ± S.D. (E. coli (ATCC 25922); [14]): 187 ± 17 CFU | CFU decrease/increase with respect to untreated controls (E. coli (ATCC 25922); peptide alone 0.032 mg/mL, 3 h): -23% | mean CFU number ± S.D. (E. coli (ATCC 25922); peptide alone 0.032 mg/mL, 3 h): 810 ± 100 CFU | CFU decrease/increase with respect to untreated controls (E. coli (ATCC 25922); [15]): +17% | mean CFU number ± S.D. (E. coli (ATCC 25922); [15]): 202 ± 18 CFU | CFU decrease/increase with respect to untreated controls (E. coli (ATCC 25922); peptide alone 0.064 mg/mL, 3 h): -30% | mean CFU number ± S.D. (E. coli (ATCC 25922); peptide alone 0.064 mg/mL, 3 h): 737 ± 147 CFU | CFU decrease/increase with respect to untreated controls (E. coli (ATCC 25922); [16]): -3% | mean CFU number ± S.D. (E. coli (ATCC 25922); [16]): 166 ± 8 CFU | CFU decrease/increase with respect to untreated controls (E. coli (ATCC 25922); peptide alone 0.128 mg/mL, 3 h): -15% | mean CFU number ± S.D. (E. coli (ATCC 25922); peptide alone 0.128 mg/mL, 3 h): 893 ± 113 CFU | CFU decrease/increase with respect to untreated controls (E. coli (ATCC 25922); [17]): +12% | mean CFU number ± S.D. (E. coli (ATCC 25922); [17]): 193 ± 9 CFU
